This is an account of results in patent US20240156790A1, “COMPOUNDS, COMPOSITIONS, AND METHODS FOR MODULATING FERROPTOSIS AND TREATING EXCITOTOXIC DISORDERS” (THE TRUSTEES OF COLUMBIA UNIVERSITY IN THE CITY OF NEW YORK, priority 2018, published 2024).

Like-named read-outs stand apart in the source and are kept apart here.

Data set [1] concerns N27 rat dopaminergic cells. Put plainly: Suppression of ferroptosis induced by RSL3 in N27 cells (CellTiter-Glo viability). Type of data set: cell-based.
Data set [2] can be described thus: Plasma Stability Assay (Examples 6 and 8). Format: in vitro ADME, mouse. The following applies: for half-life at 20 µM: mouse, plasma diluted 1:1 in phosphate buffer, pH 7.4, experiment I, read-out: t1/2 I; for half-life at 20 µM / t1/2 II: plasma half-life; for t1/2 II: experiment II. The procedure:
(§1) Mouse plasma (GeneTex) was centrifuged at 3000 rpm for 10 min at 10° C. with the resulting supernatant withdrawn and diluted 1:1 in phosphate buffer pH 7.4. To a 96-well polypropylene plate was added 50% mouse plasma phosphate buffer (195 μL). A stock solution of analog in DMSO (0.8 μL. 5 mM) or fer-1 (positive control) was added to a separate well and the components were warmed to 37° C. for 5 min with gentle agitation. The reaction was initiated with the addition of analog to plasma, and the reaction kept at 37° C. for gentle agitation for the duration of the assay. At selected time points, aliquots (15 μL) were withdrawn from the plate and quenched upon addition to cold methanol (60 μL), containing an internal standard (5 μM) in a separate 96-well polypropylene plate. At the completion of the final time-point, the samples were centrifuged at 4,000 rpm for 5 min at 4° C. The supernatant (40 μL) was withdrawn and transferred to a sample vial with insert. The samples were analyzed by LC-MS. LC-MS analysis was performed on a platform comprising a Thermo Scientific Dionex Ultimate 3000 and a Bruker amaZon SL equipped with an electrospray ionization source controlled by Bruker Hystar 3.2. Chromatographic separation was performed by injecting 5 μL of the sample onto an Agilent Eclipse Plus C18 column (2.1×50 mm, 3.5 μm) maintained at 20° C. The flow rate was maintained at 400 μL/min. The initial flow conditions were 80% solvent A (water containing 0.1% acetic acid) and 20% solvent B (methanol containing 0.1% acetic acid). Solvent B was raised to 80% over 0.50 min by 1.50 min. Solvent B was raised to 100% by 5.00 min and held there for 3.25 min. […] All analogs were detected in positive mode as [M+H]*. The percent compound remaining at each time-point was calculated as the ratio of the integrated compound peak over the internal standard peak and standardized to the t=0 time-point. Values were plotted in GraphPad Prism 9 and fit with a one phase decay.
as §1, with “3000 rpm (1053 g) for 10” for “3000 rpm for 10”, “4,000 rpm (1872 g) for 5” for “4,000 rpm for 5”, “phase decay. […]” for “phase decay.”

Data set [3] relates to modified bacteria sensitive to mutagenic agents. Type of data set: cell-based. Particulars: […] to 82 μM, 3 days. The procedure:
The AMES test uses modified bacteria sensitive to mutagenic agents to assess a compound's ability to cause direct DNA mutations. If the tested drug can induce reverse mutational events, it will cause bacteria to revert back to a prototrophic state and grow on media lacking selected nutrients. We tested TH-2-31, TH-4-55-2, and TH-4-67 using the AMES test. CFI-4082 was also included in the test for comparison. Bacteria strains were incubated under exposure to different concentrations of tested compounds for 3 days and collected 144 data points of mutation status at each concentration. The concentration ranged from 5.1 μM to 82 μM, which is the highest local organ concentration of our compounds in the above mice study (FIG. 12).
The Ames test uses modified bacteria sensitive to mutagenic agents to assess a compound's ability to cause direct DNA mutations. If a tested compound can induce revert mutational events, it will cause bacteria to revert back to a prototrophic state and grow on media lacking selected nutrients. We evaluated TH-2-31, TH-4-55-2, and TH-4-67 in the Ames test. We also included PHB4082 in this test. Bacteria strains were incubated under exposure to different concentrations of tested compounds for three days and 144 data points were collected on mutation status across a concentration range from 5.1 μM to 82 μM, which was the highest local organ concentration observed in previous mouse studies.

Setting [4] is: Rattus norvegicus, N27, 24 h, Table 13, 20 nM RSL3, treated for 24 hours^d, read-out: IC50.
[5] abbreviates: Rattus norvegicus, N27, 24 h, 20 nM RSL3, 24 hours, separate experiment I, read-out: IC50 I.
The mark [6] stands for this setting: Rattus norvegicus, N27, 24 h, 20 nM RSL3, 24 hours, separate experiment II, read-out: IC50 II.
Where [7] appears, read: Rattus norvegicus, N27, 24 h, 20 nM RSL3, 24 hours, separate experiment III, read-out: IC50 III.
The mark [8] stands for this setting: Rattus norvegicus, N27, 24 h, Table 3, ^d 24 hr treatment, 1,000 cells/well seeded, read-out: IC50.
Where [9] appears, read: Rattus norvegicus, N27, 24 h, RSL3 20 nM, 24 hours of treatment, read-out: IC50.
[10] abbreviates: Rattus norvegicus, N27, Table 7, value used for Cmax/IC50, read-out: IC50.

Turning to `CCOC(=O)c1ccc(NC2CCCCC2)c(N)c1` [Fer-1, Ferrostatin-1, reference compound], in data set [1] (Rattus norvegicus, N27, Table 3, ^d 24 hr treatment, 1,000 cells/well seeded, read-out: IC50), the concentration for half-maximal inhibition (IC50) turned out to be 3.2 nM. Besides, the IC50 in data set [1] (Rattus norvegicus, N27, Table 3, ^e 48 hr treatment, 1,000 cells/well seeded, read-out: IC50) came to 12.5 nM. Also, in data set [2], the “stability in mouse plasma, in words” value was “rapidly degraded in mouse plasma” and the “time to full degradation in mouse plasma” value was “less than 15 min”.

Turning to `Cc1noc(-c2ccc(NC3CCCCC3)c(NC3CCCCC3)c2)n1` [PHB4082, N1,N2-dicyclohexyl-4-(3-methyl-1,2,4-oxadiazol-5-yl)benzene-1,2-diamine], in data set [1] (setting [4]), the IC50 came out at 2.6 nM.

For the compound `Cc1noc(-c2cnc(NC3CCCCC3)c(NC3CCCCC3)c2)n1` [TH-2-31, N^2,N^3-dicyclohexyl-5-(3-methyl-1,2,4-oxadiazol-5-yl)pyridine-2,3-diamine], the “potency relative to fer-1, in words” value in data set [1] (20 nM RSL3) is “less potent than fer-1”. Moreover, the IC50 was 2.6 nM in data set [1] (setting [5]); 1.4 nM in data set [1] (setting [6]); 6.1 nM in data set [1] (setting [7]); 3.4 nM in data set [1] (setting [8]); 3.4 nM in data set [1] (setting [4]); under 10 nM in data set [1] (setting [9]). For the same compound, the IC50 in data set [1] (setting [10]) worked out at 3.37 nM. For the same compound, in data set [2], the “stability in mouse plasma, in words” value is on record as “not metabolized in mouse plasma”. In addition, in data set [2], the half-life at 20 µM is over 4 h. Moreover, the “t1/2 II” value in data set [2] is over 4 h. In addition, the “mutagenic potential (Ames test result)” value in data set [3] was “none of the compounds had mutagenic potential”.

As to `CCC(CC)Nc1cc(-c2nc(C)no2)cnc1NC1CCCCC1` [TH-4-55-2, N^2-cyclohexyl-5-(3-methyl-1,2,4-oxadiazol-5-yl)-N^3-(pentan-3-yl)pyridine-2,3-diamine], the “potency relative to fer-1, in words” value in data set [1] (20 nM RSL3) is recorded as “more potent than fer-1”. Moreover, the 50% inhibitory concentration (IC50) in data set [1] (setting [5]) was 0.8 nM; in data set [1] (setting [6]) it was 1 nM; in data set [1] (setting [7]) it was 4.9 nM; in data set [1] (setting [8]) it was 2.2 nM; in data set [1] (setting [4]), 2.2 nM; in data set [1] (setting [9]), under 10 nM. Also, the IC50 in data set [1] (setting [10]) amounted to 2.23 nM. Further, the “stability in mouse plasma, in words” value in data set [2] is on record as “not metabolized in mouse plasma”. For the same compound, in data set [2], the half-life at 20 µM was over 4 h. For the same compound, the “t1/2 II” value in data set [2] is over 4 h. In addition, in data set [3], the “mutagenic potential (Ames test result)” value was “none of the compounds had mutagenic potential”.

Regarding `Cc1noc(-c2cnc(NC3CCCC3)c(NC3CCCC3)c2)n1` [TH-4-67, N^2,N^3-dicyclopentyl-5-(3-methyl-1,2,4-oxadiazol-5-yl)pyridine-2,3-diamine], in data set [1] (20 nM RSL3), the “potency relative to fer-1, in words” value is “more potent than fer-1”. Also, the IC50 in data set [1] (setting [5]) was 1.5 nM; in data set [1] (setting [6]) it was 1.4 nM; in data set [1] (setting [7]) it was 3.4 nM; in data set [1] (setting [8]) it was 2.1 nM; in data set [1] (setting [4]) it was 2.1 nM; in data set [1] (setting [10]), 2.1 nM. Also, the EC50 in data set [1] (Rattus norvegicus, N27, text b573) was 2 nM. The “stability in mouse plasma, in words” value in data set [2] is recorded as “not metabolized in mouse plasma”. Besides, the half-life at 20 µM in data set [2] was over 4 h. In data set [2], the “t1/2 II” value is over 4 h. For the same compound, in data set [3], the “mutagenic potential (Ames test result)” value is on record as “none of the compounds had mutagenic potential”.
